# Data as given in patent publication US6359008B1, “Acylated aminoacids for increasing the uptake of selected substances by organisms” (Lovesgrove Research Limited, priority 1998, dated 2002).
# Columns and labels:
# Rainbow Trout = test: Field trial of Corbinol as pigment adsorption enhancer in fish feed; format: in vivo
# Procedure: A field trial was conducted at a fish farm facility adjacent to the Rheidol hydroelectric station to establish a preliminary indication of the efficacy of Corbinol comprising 75 g palmitoylaminoproprionic acid with 925 g of silica talc carrier as a pigment adsorption enhancer. Approximately 250 Rainbow Trout were divided into two groups and held in separate tanks each 4 m×4 m×1 m. The fish were hand fed for a duration of 4 weeks, the diets for the two groups being: Control: Mainstream Trout Hi-Performance 40 Treated: Mainstream Trout Hi-Performance+Corbinol (1 kg/tonne) At the end of the trial 100 farm fish from each group were removed and individually weighed. Equal levels of flesh samples were bulked together forming 10 groups of 10 for both the control and treated diets. HPLC analysis was conducted using a Merck-Hitachi L-4250 UV-Vis detector following an isocratic method referred to in a Roche Ltd publication.
# [1] = Heat stability of the compound; format: physicochemical
# Description: The high polar head group appears to provide the bio-activity of the compound without having to incorporate a phosphonic group therein.
structure (smiles),measurement,setting,value
CCCCCCCCCCCCCCCC(=O)NC(C)C(=O)O (centres unmarked) [2-palmitoylaminoproprionic acid],"uptake of selected compounds, in particular pigments, in organisms such as fish",Rainbow Trout,increase the uptake of selected compounds
same,heat stable to,[1],approximately 130 °C
